Results on 33 compounds are retold here after US9050345B2, “Pyrrolotriazines as potassium ion channel inhibitors” (BRISTOL-MYERS SQUIBB COMPANY, priority 2013, dated 2015).

The target of the experiment is T1, human KV 1.5 (IKur) (Homo sapiens, UniProt P22460).
T1 construct: expressed in transfected cells
T1 sequence (P22460 whole entry): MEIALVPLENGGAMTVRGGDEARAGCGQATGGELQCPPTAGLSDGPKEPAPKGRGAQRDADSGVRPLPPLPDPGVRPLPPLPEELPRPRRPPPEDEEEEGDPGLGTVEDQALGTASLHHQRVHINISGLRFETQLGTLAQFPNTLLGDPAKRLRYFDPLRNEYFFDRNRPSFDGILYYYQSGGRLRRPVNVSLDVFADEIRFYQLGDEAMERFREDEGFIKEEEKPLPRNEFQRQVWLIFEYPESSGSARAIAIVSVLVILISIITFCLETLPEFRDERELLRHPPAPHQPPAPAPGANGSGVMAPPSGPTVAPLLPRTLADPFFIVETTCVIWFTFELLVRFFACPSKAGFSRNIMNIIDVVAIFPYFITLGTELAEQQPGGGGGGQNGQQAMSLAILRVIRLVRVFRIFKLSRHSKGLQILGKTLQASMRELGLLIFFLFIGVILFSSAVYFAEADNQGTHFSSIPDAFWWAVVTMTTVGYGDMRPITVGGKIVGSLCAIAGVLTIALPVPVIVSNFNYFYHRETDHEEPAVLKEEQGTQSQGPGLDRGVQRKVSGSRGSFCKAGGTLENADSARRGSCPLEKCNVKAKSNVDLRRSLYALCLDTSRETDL
Kind of experiment: block of IKur current in patch clamped L-929 cells expressing human Kv1.5. It is filed as cell-based. The settings on record: L929, 0.3 μM; patch clamped mammalian L-929 cells stably expressing human Kv1.5; read-out: KV1_5% Inh L929 @0.3 μM. For orientation: In patch-clamp work, channel activity is measured electrically.
For the compound `NS(=O)(=O)c1cccc(NC(=O)c2nc(NCc3ccccc3)c3c(-c4ccccc4)ccn3n2)c1` [Example 116, 4-(benzylamino)-5-phenyl-N-(3-sulfamoylphenyl) pyrrolo[1,2-f][1,2,4] triazine-2-carboxamide], the inhibition at 0.3 µM was 89.4%.

For `NS(=O)(=O)c1ccc(CCNC(=O)c2nc(NCc3ccccc3)c3c(-c4ccccc4)ccn3n2)cc1` [Example 117, 4-(benzylamino)-5-phenyl-N-(4-sulfamoylphenethyl) pyrrolo[1,2-f][1,2,4] triazine-2-carboxamide], the inhibition at 0.3 µM amounted to 86.6%.

Take `O=C(NC1(CO)CCCC1)c1nc(NCc2ccccc2)c2c(-c3ccccc3)ccn2n1` [Example 118, 4-(benzylamino)-N-(1-(hydroxymethyl)cyclopentyl)-5-phenylpyrrolo [1,2-f][1,2,4] triazine-2-carboxamide]: the inhibition at 0.3 µM was 45%.

On to `O=C(NC[C@H](O)c1ccccc1)c1nc(NCc2ccccc2)c2c(-c3ccccc3)ccn2n1` [Example 119, (R)-4-(benzylamino)-N-(2-hydroxy-2-phenylethyl)-5-phenylpyrrolo [1,2-f][1,2,4] triazine-2-carboxamide], for which the inhibition at 0.3 µM worked out at 67.5%.

As to `O=C(c1nc(NCc2ccccc2)c2c(-c3ccccc3)ccn2n1)N1CCN(c2ccc(O)cc2)CC1` [Example 120, (4-(benzylamino)-5-phenylpyrrolo [1,2-f][1,2,4]triazin-2-yl)(4-(4-hydroxyphenyl)piperazin-1-yl)methanone], the inhibition at 0.3 µM came out at 49%.

With `O=C(Nc1ccc(CCO)cc1)c1nc(NCc2ccccc2)c2c(-c3ccccc3)ccn2n1` [Example 122, 4-(benzylamino)-N-(4-(2-hydroxyethyl)phenyl)-5-phenylpyrrolo [1,2-f][1,2,4] triazine-2-carboxamide], the inhibition at 0.3 µM is 75.8%.

Take `O=C(Nc1ccc(-n2cncn2)cc1)c1nc(NCc2ccccc2)c2c(-c3ccccc3)ccn2n1` [Example 123, N-(4-(1H-1,2,4-triazol-1-yl)phenyl)-4-(benzylamino)-5-phenylpyrrolo [1,2-f][1,2,4] triazine-2-carboxamide]: the inhibition at 0.3 µM came to 63.5%.

Regarding `O=C(Nc1ccncn1)c1nc(NCc2ccccc2)c2c(-c3ccccc3)ccn2n1` [Example 124, 4-(benzylamino)-5-phenyl-N-(pyrimidin-4-yl)pyrrolo[1,2-f][1,2,4] triazinc-2-carboxamide], the inhibition at 0.3 µM worked out at 86.4%.

As to `COc1ccc(CNC(=O)c2nc(NCc3ccccc3)c3c(-c4ccccc4)ccn3n2)c(OC)c1` [Example 125, 4-(benzylamino)-N-(2,4-dimethoxybenzyl)-5-phenylpyrrolo [1,2-f][1,2,4] triazine-2-carboxamide], the inhibition at 0.3 µM was found to be 88.7%.

Turning to `c1ccc(-c2ccn3nc(-c4cc[nH]n4)nc(NCc4ccccn4)c23)cc1` [Example 126, 5-pheny 1-2-(1H-pyrazol-3-yl)-N-(pyridin-2-ylmethyl) pyrrolo[1,2-f][1,2,4] triazin-4-amine], the inhibition at 0.3 µM stood at 98.5%.

For `NS(=O)(=O)c1cncc(-c2nc(NCc3ccccn3)c3c(-c4ccccc4)ccn3n2)n1` [Example 127, 6-(5-phenyl-4-(pyridin-2-ylmethylamino)pyrrolo[1,2-f][1,2,4]triazin-2-yl)pyrazine-2-sulfonamide], the inhibition at 0.3 µM came out at 99.3%.

In the case of `c1ccc(CNc2nc(C3CCOCC3)nn3ccc(-c4ccccc4)c23)cc1` [Example 128, N-benzyl-5-phenyl-2-(tetrahydro-2H-pyran-4-yl)pyrrolo[1,2-f][1,2,4] triazin-4-amine], the inhibition at 0.3 µM came out at 95.4%.

In the case of `NS(=O)(=O)c1cncc(-c2nc(NCc3ccccc3)c3c(C4=CCOCC4)ccn3n2)c1` [Example 129, 5-(4-(benzylamino)-5-(3,6-dihydro-2H-pyran-4-yl)pyrrolo[2,1-f][1,2,4]triazin-2-yl)pyridine-3-sulfonamide], the inhibition at 0.3 µM worked out at 93.8%.

For `Nc1ncc(-c2nc(NCc3ccccn3)c3c(-c4ccccc4)ccn3n2)cc1S(N)(=O)=O` [Example 130, 2-amino-5-(5-phenyl-4-((pyridin-2-ylmethyl)amino)pyrrolo [2,1-f][1,2,4]triazin-2-yl)pyridine-3-sulfonamide], the inhibition at 0.3 µM was 97.6%.

As to `NS(=O)(=O)c1cncc(-c2nc(NCC3CCCCC3)c3c(-c4ccccc4)ccn3n2)c1` [Example 131, 5-(4-((cyclohexylmethyl)amino)-5-phenylpyrrolo [2,1-f][1,2,4]triazin-2-yl)pyridine-3-sulfonamide], the inhibition at 0.3 µM worked out at 83.9%.

As for `CCOc1ncc(-c2nc(NCc3ccccn3)c3c(-c4ccccc4)ccn3n2)cc1S(N)(=O)=O` [Example 134, 2-ethoxy-5-(5-phenyl-4-((pyridin-2-ylmethyl)amino)pyrrolo [2,1-f][1,2,4]triazin-2-yl)pyridine-3-sulfonamide], the inhibition at 0.3 µM turned out to be 95%.

As to `NS(=O)(=O)c1cncc(-c2nc(NCc3ccccn3)c3c(-c4ccccc4C(F)(F)F)ccn3n2)c1` [Example 135, 5-(4-((pyridin-2-ylmethyl)amino)-5-(2-(trifluoromethyl)phenyl)pyrrolo[2,1-f][1,2,4]triazin-2-yl)pyridine-3-sulfonamide], the inhibition at 0.3 µM is 98.5%.

On to `NS(=O)(=O)c1cncc(-c2nc(NCc3ccccn3)c3c(-c4ccccc4Cl)ccn3n2)c1` [Example 136, 5-(5-(2-chlorophenyl)-4-((pyridin-2-ylmethyl)amino)pyrrolo [2,1-f][1,2,4]triazin-2-yl)pyridine-3-sulfonamide], for which the inhibition at 0.3 µM came out at 98.7%.

On to `COc1ncc(-c2nc(NCc3cnccn3)c3c(-c4ccccc4)ccn3n2)cc1S(N)(=O)=O` [Example 137, 2-methoxy-5-(5-phenyl-4-((pyrazin-2-ylmethyl)amino)pyrrolo [2,1-f][1,2,4]triazin-2-yl)pyridine-3-sulfonamide], for which the inhibition at 0.3 µM is 82.9%.

In the case of `NS(=O)(=O)c1cncc(-c2nc(NCc3ncccc3F)c3c(-c4ccccc4)ccn3n2)c1` [Example 138, 5-(4-(((3-fluoropyridin-2-yl)methyl)amino)-5-phenylpyrrolo [2,1-f][1,2,4]triazin-2-yl) pyridine-3-sulfonamide], the inhibition at 0.3 µM stood at 96.2%.

Take `COc1cccc(CNc2nc(-c3cnc(OC)c(S(N)(=O)=O)c3)nn3ccc(-c4ccccc4)c23)n1` [Example 139, 2-methoxy-5-(4-(((6-methoxypyridin-2-yl)methyl)amino)-5-phenylpyrrolo [2,1-f][1,2,4]triazin-2-yl)pyridine-3-sulfonamide]: the inhibition at 0.3 µM was 98.5%.

For `COc1cccc(CNc2nc(-c3cncc(S(N)(=O)=O)c3)nn3ccc(-c4ccccc4)c23)n1` [Example 140, 5-(4-(((6-methoxypyridin-2-yl)methyl)amino)-5-phenylpyrrolo [2,1-f][1,2,4]triazin-2-yl)pyridine-3-sulfonamide], the inhibition at 0.3 µM is 99.1%.

As to `N#Cc1cccc(F)c1CNc1nc(-c2cncc(S(N)(=O)=O)c2)nn2ccc(-c3ccccc3)c12` [Example 141, 5-(4-((2-cyano-6-fluorobenzyl)amino)-5-phenylpyrrolo [2,1-f][1,2,4]triazin-2-yl)pyridine-3-sulfonamide], the inhibition at 0.3 µM is 87.7%.

As to `NS(=O)(=O)c1cncc(-c2nc(NCc3cocn3)c3c(-c4ccccc4)ccn3n2)c1` [Example 142, 5-(4-((oxazol-4-ylmethyl)amino)-5-phenylpyrrolo [2,1-f][1,2,4]triazin-2-yl)pyridine-3-sulfonamide], the inhibition at 0.3 µM was 97.2%.

Take `NS(=O)(=O)c1cncc(-c2nc(N3Cc4ccccc4C3)c3c(-c4ccccc4)ccn3n2)c1` [Example 143, 5-(4-(isoindolin-2-yl)-5-phenylpyrrolo [2,1-f][1,2,4]triazin-2-yl)pyridine-3-sulfonamide]: the inhibition at 0.3 µM came to 93.8%.

As for `NS(=O)(=O)c1cncc(-c2nc(N3Cc4cccnc4C3)c3c(-c4ccccc4)ccn3n2)c1` [Example 144, 5-(4-(5,7-dihydro-6H-pyrrolo[3,4-b]pyridin-6-yl)-5-phenylpyrrolo [2,1-f][1,2,4]triazin-2-yl)pyridine-3-sulfonamide], the inhibition at 0.3 µM worked out at 99%.

Take `NS(=O)(=O)c1cncc(-c2nc(NCC3(O)CCCCC3)c3c(-c4ccccc4)ccn3n2)c1` [Example 145, 5-(4-((1-hydroxycyclohexyl)methylamino)-5-phenylpyrrolo [1,2-f][1,2,4]triazin-2-yl)pyridine-3-sulfonamide]: the inhibition at 0.3 µM was 62.5%.

As to `NS(=O)(=O)c1cncc(-c2nc(NCc3ncc[nH]3)c3c(-c4ccccc4)ccn3n2)c1` [Example 146, 5-(4-((1H-imidazol-2-yl)methylamino)-5-phenylpyrrolo [1,2-f][1,2,4]triazin-2-yl)pyridine-3-sulfonamide], the inhibition at 0.3 µM turned out to be 78.7%.

As for `COc1ncc(-c2nc(NCc3ccccn3)c3c(-c4ccccc4)ccn3n2)cc1S(N)(=O)=O` [Example 147, 2-methoxy-5-(5-phenyl-4-(pyridin-2-ylmethylamino)pyrrolo[1,2-f][1,2,4]triazin-2-yl)pyridine-3-sulfonamide], the inhibition at 0.3 µM is 97.3%.

Regarding `NS(=O)(=O)c1cncc(-c2nc(NCc3ccccn3)c3c(-c4cccnc4)ccn3n2)c1` [Example 148, 5-(4-(pyridin-2-ylmethylamino)-5-(pyridin-3-yl)pyrrolo [1,2-f][1,2,4]triazin-2-yl)pyridine-3-sulfonamide], the inhibition at 0.3 µM is 84.8%.

In the case of `NS(=O)(=O)c1cccc(-c2nc(NCc3ccccc3)c3c(-c4ccccc4)ccn3n2)c1` [Example 149, 3-(4-(benzylamino)-5-phenylpyrrolo[1,2-f] [1,2,4]triazin-2-yl)benzenesulfonamide], the inhibition at 0.3 µM was found to be 95.8%.

Consider `NS(=O)(=O)c1cccc(-c2nc(NCc3ccccn3)c3c(-c4ccccc4)ccn3n2)c1` [Example 150, 3-(5-phenyl-4-(pyridin-2-ylmethylamino)pyrrolo [1,2-f][1,2,4]triazin-2-yl)benzenesulfonamide], for which the inhibition at 0.3 µM was found to be 97.5%.

Turning to `Oc1ccc(-c2nc(NCc3ccccn3)c3c(-c4ccccc4)ccn3n2)cn1` [Example 151, 5-(5-phenyl-4-((pyridin-2-ylmethyl)amino)pyrrolo [2,1-f][1,2,4]triazin-2-yl)pyridin-2-ol], the inhibition at 0.3 µM was found to be 94.2%.
